In patent US20100160279A1, “Azetidine Derivatives as Muscarinic Receptor Antagonists” (Pfizer Inc, priority 2006, published 2010) one finds Ki data, which are given here for 11 compounds.

pKi: −log10 of the molar value.

For this assay, the target named is T1, human muscarinic M3 receptor (Homo sapiens, UniProt P20309).
T1 construct: expressed in transfected cells
T1 sequence (P20309 whole entry): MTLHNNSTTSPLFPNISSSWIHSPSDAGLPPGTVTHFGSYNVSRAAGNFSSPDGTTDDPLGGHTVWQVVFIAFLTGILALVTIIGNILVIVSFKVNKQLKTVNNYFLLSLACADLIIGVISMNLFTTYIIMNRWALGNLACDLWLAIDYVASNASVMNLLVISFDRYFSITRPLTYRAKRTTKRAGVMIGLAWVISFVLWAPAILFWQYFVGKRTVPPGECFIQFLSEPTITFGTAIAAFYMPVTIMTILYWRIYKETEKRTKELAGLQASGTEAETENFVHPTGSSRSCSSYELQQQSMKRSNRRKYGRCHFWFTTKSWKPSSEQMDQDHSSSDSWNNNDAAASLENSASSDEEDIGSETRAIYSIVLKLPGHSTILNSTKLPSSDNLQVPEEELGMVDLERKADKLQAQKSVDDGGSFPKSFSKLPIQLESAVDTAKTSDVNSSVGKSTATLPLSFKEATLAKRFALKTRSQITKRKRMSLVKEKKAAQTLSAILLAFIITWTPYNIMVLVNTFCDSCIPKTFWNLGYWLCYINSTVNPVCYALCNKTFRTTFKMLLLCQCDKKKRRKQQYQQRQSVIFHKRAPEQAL
The assay is described as follows: hM3 β-Lac potency assay (cell based β-lactamase, inhibition of carbamyl choline induced signal). The settings on record: CHO cells expressing human M3 receptor with NFAT-β-lactamase reporter; 80 nM carbamyl choline, 4 h; IC50 converted to Ki by Cheng-Prusoff. On the procedure:
M3 potency was determined in CHO-K1 cells transfected with the NFAT-Betalactamase gene. CHO (Chinese Hamster Ovary) cells recombinantly expressing the human muscarinic M3 receptor were transfected with the NFAT_β-Lac_Zeo plasmid.
The cells were re-suspended at 2×10^5 cells/ml in growth medium (composition as described above). […] Muscarinic M3 receptor signalling was stimulated using 80 nM carbamyl choline (Aldrich N240-9) incubated with the cells for 4 h at 37° C./5% CO2 and monitored at the end of the incubation period using a Tecan SpectraFluor+ plate reader (λ-excitation 405 nm, emission 450 nm and 503 nm). […] Inhibition curves were plotted and IC50 values generated using a 4-parameter sigmoid fit and converted to Ki values using the Cheng-Prusoff correction and the KD value for carbamyl choline in the assay.
For `CC(C)(CCC(C(N)=O)(c1ccccc1)c1ccccc1)N1CC(NCc2ccccc2)C1` [Example 2, 5-(3-Benzylamino-azetidin-1-yl)-5-methyl-2,2-diphenyl-hexanoic acid amide], the pKi is 9.25.

In turn, `CC(C)(CCC(C(N)=O)(c1ccccc1)c1ccccc1)N1CC(NCc2cccc(O)c2Cl)C1` [Example 3, 5-[3-(2-Chloro-3-hydroxy-benzylamino)-azetidin-1-yl]-5-methyl-2,2-diphenyl-hexanoic acid amide] showed a pKi of 8.68.

In turn, `CC(C)(CCC(C(N)=O)(c1ccccc1)c1ccccc1)N1CC(NCc2cc(Cl)ccc2O)C1` [Example 4, 5-[3-(5-Chloro-2-hydroxy-benzylamino)-azetidin-1-yl]-5-methyl-2,2-diphenyl-hexanoic acid amide] had a pKi of 7.25.

Compound `CC(C)(CCC(C(N)=O)(c1ccccc1)c1ccccc1)N1CC(NCc2cc(F)ccc2O)C1` [Example 5, 5-[3-(5-Fluoro-2-hydroxy-benzylamino)-azetidin-1-yl]-5-methyl-2,2-diphenyl-hexanoic acid amide] gave a pKi of 8.60.

Turning to `CC(C)(CCC(C(N)=O)(c1ccccc1)c1ccccc1)N1CC(NCc2cccc(O)c2)C1` [Example 6, 5-[3-(3-Hydroxy-benzylamino)-azetidin-1-yl]-5-methyl-2,2-diphenyl-hexanoic acid amide], the pKi is 9.14.

`CC(C)(CCC(C#N)(c1ccccc1)c1ccccc1)N1CC(NCc2cc(F)ccc2O)C1` [Example 7, 5-[3-(5-Fluoro-2-hydroxy-benzylamino)-azetidin-1-yl]-5-methyl-2,2-diphenyl-hexanenitrile] gave a pKi of 8.36.

On to `CC(C)(CCC(C#N)(c1ccccc1)c1ccccc1)N1CC(NCc2cc(Cl)ccc2O)C1` [Example 8, 5-[3-(5-Chloro-2-hydroxy-benzylamino)-azetidin-1-yl]-5-methyl-2,2-diphenyl-hexanenitrile], for which the pKi was less than 6.50.

`CC(C)(CCC(C(N)=O)(c1ccccc1)c1ccccc1)N1CC(NCc2ccccc2O)C1` [Example 9, 5-[3-(2-Hydroxy-benzylamino)-azetidin-1-yl]-5-methyl-2,2-diphenyl-hexanoic acid amide] gave a pKi of 9.23.

Compound `CC(C)(CCC(C(N)=O)(c1ccccc1)c1ccccc1)N1CC(NCc2ccc(F)c(O)c2)C1` [Example 10, 5-[3-(4-Fluoro-3-hydroxy-benzylamino)-azetidin-1-yl]-5-methyl-2,2-diphenyl-hexanoic acid amide] showed a pKi of 9.40.

The compound `CC(C)(CCC(C(N)=O)(c1ccccc1)c1ccccc1)N1CC(NCc2ccc(Cl)c(O)c2)C1` [Example 12, 5-[3-(4-Chloro-3-hydroxy-benzylamino)-azetidin-1-yl]-5-methyl-22-diphenyl-hexanoic acid amide] showed a pKi of 9.04.

`CC(C)(CCC(C(N)=O)(c1ccccc1)c1ccccc1)N1CC(Sc2cccc(O)c2)C1` [Example 15, 5-[3-(3-Hydroxy-phenylsulfanyl)-azetidin-1-yl]-5-methyl-2,2-diphenyl-hexanoic acid amide] had a pKi of 9.43.
